# Measured values reported in patent publication EP0068680A1, “Antibiotics” (BEECHAM GROUP PLC, priority 1981, dated 1983).
# Read-outs that look alike come from different tables or passages of the source.
# How the values were obtained:
# M. hyorhinis ATCC 25021 = experiment: MIC against Mycoplasma in vitro (agar); assay type: cell-based; conditions: Friis broth solidified with 0.9% agarose, 6 days at 37°C
# [1] = test system: Neisseria catarrhalis 1502; experiment: MIC against Human Bacteria in vitro (agar dilution); assay type: cell-based; conditions: agar with 5% chocolated horse blood, 18 hours at 37°C
# [2] = test system: Strep. pyogenes R80/421-A; experiment: as above; assay type: cell-based; conditions: Streptococcus pyogenes, agar with 5% chocolated horse blood, 18 hours at 37°C
# Staph. aureus Oxford = experiment: MIC against Veterinary Bacteria in vitro (agar dilution)
# Procedure: (§1) The activity of the compounds of the Examples against various veterinarily important bacteria, was assayed in vitro using two-fold serial dilutions in Diagnostic Sensitivity Test Agar inoculated with 10^4 organisms.
# Strep. faecalis I = experiment: MIC against Human Bacteria in vitro (agar dilution); assay type: cell-based; conditions: agar with 5% chocolated horse blood, 18 hours at 37°C
# E. coli NCTC 10418 [3] = experiment: MIC against Veterinary Bacteria in vitro (agar dilution)
# Procedure: as §1
# Staph. aureus W2827 = experiment: MIC against Human Bacteria in vitro (agar dilution); assay type: cell-based; conditions: agar with 5% chocolated horse blood, 18 hours at 37°C
# [4] = test system: Staph. aureus 152 (pen. sens); experiment: MIC against Veterinary Bacteria in vitro (agar dilution)
# Procedure: as §1
# E. coli NCTC 10418 [5] = experiment: MIC against Human Bacteria in vitro (agar dilution); assay type: cell-based; conditions: 18 hours at 37°C
# M. bovis NCTC 10131 = experiment: microbe, parasite or virus in culture; assay type: cell-based
# M. suipneumoniae JF 435 = experiment: MIC against Mycoplasma in vitro (agar); assay type: cell-based; conditions: Friis broth solidified with 0.9% agarose, 6 days at 37°C
# Sarcina lutea 8340 = experiment: MIC against Human Bacteria in vitro (agar dilution); assay type: cell-based; conditions: agar with 5% chocolated horse blood, 18 hours at 37°C
# [6] = test system: M. bovigenitalium ATCC 14173; experiment: MIC against Mycoplasma in vitro (agar); assay type: cell-based; conditions: Friis broth solidified with 0.9% agarose, 6 days at 37°C
# Strep. pyogenes 64/848-C = experiment: MIC against Human Bacteria in vitro (agar dilution); assay type: cell-based; conditions: Streptococcus pyogenes, agar with 5% chocolated horse blood, 18 hours at 37°C
# [7] = test system: Corynebacterium pyogenes CY1; experiment: MIC against Veterinary Bacteria in vitro (agar dilution); conditions: Diagnostic Sensitivity Test Agar, 18 hours at 37°C
# Procedure: as §1
# M. pneumoniae ATCC 15492 = experiment: MIC against Mycoplasma in vitro (agar); assay type: cell-based; conditions: Friis broth solidified with 0.9% agarose, 6 days at 37°C
# [8] = test system: Haemophilus influenzae Wy21; experiment: MIC against Human Bacteria in vitro (agar dilution); assay type: cell-based; conditions: agar with 5% chocolated horse blood, 18 hours at 37°C
molecule,measurement,setting,value
"CC(=CC(=O)OCCCCC=CCCC(=O)O)CC1OCC(CC2OC2C(C)C(C)O)C(O)C1O (centres unmarked) [Example 1, pseudomonic acid D]",MIC,"M. hyorhinis ATCC 25021; Mesomycoplasma hyorhinis, ATCC25021, 144 h, read-out: MIC",1 µg/mL
same,MIC,[1]; read-out: MIC,0.5 µg/mL
same,MIC,[2],0.5 µg/mL
same,MIC,"Staph. aureus Oxford; Staphylococcus aureus, 18 h",0.312 µg/mL
same,MIC,"Strep. faecalis I; Enterococcus faecalis, read-out: MIC",> 25 µg/mL
same,MIC,"E. coli NCTC 10418 [3]; Escherichia coli, NCTC10418, 18 h",> 20 µg/mL
same,MIC,"Staph. aureus W2827; Staphylococcus aureus, read-out: MIC",1 µg/mL
same,MIC,"[4]; Staphylococcus aureus, 18 h",0.312 µg/mL
same,MIC,"E. coli NCTC 10418 [5]; Escherichia coli, NCTC10418, agar with 5% chocolated horse blood, read-out: MIC",> 25 µg/mL
same,MIC,"M. bovis NCTC 10131; NCTC10131, 144 h",0.05 µg/mL
same,MIC,"M. suipneumoniae JF 435; Mesomycoplasma hyopneumoniae, JF435, 144 h, read-out: MIC",5 µg/mL
same,MIC,"Sarcina lutea 8340; Micrococcus luteus, read-out: MIC",> 25 µg/mL
same,MIC,"[6]; 144 h, read-out: MIC",0.1 µg/mL
same,MIC,Strep. pyogenes 64/848-C,0.25 µg/mL
Methyl pseudomonate D [Example 2],MIC,M. hyorhinis ATCC 25021,1.0 µg/mL
same,MIC,[1],0.5 µg/mL
same,MIC,"Staph. aureus Oxford; Staph. aureus Oxford, Diagnostic Sensitivity Test Agar, 18 hours at 37°C",0.625 µg/mL
same,MIC,Strep. faecalis I,>100 µg/mL
same,MIC,[7],80 µg/mL
same,MIC,M. pneumoniae ATCC 15492,>10 µg/mL
same,MIC,"E. coli NCTC 10418 [3]; E. coli NCTC 10418, Diagnostic Sensitivity Test Agar, 18 hours at 37°C",40 µg/mL
same,MIC,Staph. aureus W2827,1.0 µg/mL
same,MIC,"[4]; Staph. aureus 152 (pen. sens), Diagnostic Sensitivity Test Agar, 18 hours at 37°C",0.625 µg/mL
same,MIC,E. coli NCTC 10418 [5]; agar with 5% chocolated horse blood,>100 µg/mL
same,MIC,"M. bovis NCTC 10131; M. bovis NCTC 10131, Friis broth solidified with 0.9% agarose, 6 days at 37°C",0.05 µg/mL
same,MIC,M. suipneumoniae JF 435,5.0 µg/mL
same,MIC,Sarcina lutea 8340,>100 µg/mL
same,MIC,[8],0.1 µg/mL
same,MIC,[6],0.1 µg/mL
